Measured values from patent US6500827B2, “Drug combinations” (Pharmacia & Upjohn Company, priority 1998, dated 2002).

How the values were obtained:
tolerability and safety = conditions: in vivo
Procedure: It is more commonly provided in dosages of from 1 to 20 mg per patient per day. […] Other adverse reactions are possible. […] Both compounds may be administered by any suitable method including a convenient oral dosage form. A preferred method is oral dosing twice a day.

I-adrenerigic receptors = experiment: interaction with I-adrenerigic receptors; type: binding
dopamine uptake = system: dopamine uptake
Excerpt: (§1) Leonard-BE, “Noradrenaline in basic models of depression.” European-Neuropsychopharnacol. April 1997; 7 Suppl 1: S11-6; discussion S71-3.

norepinephrine uptake = conditions: compared with classical tricyclic antidepressants
Excerpt: as §1

monoamine oxidase (MAO) = system: monoamine oxidase (MAO)
Excerpt: as §1

serotonin uptake = system: serotonin uptake
Excerpt: as §1

8-OH-DPAT hypothermia = conditions: in vivo; cited from earlier work
[1] = system: patients with a DSM-III-R diagnosis of Obsessive Compulsive Disorder; experiment: trial in patients with Obsessive Compulsive Disorder; type: in vivo, human; conditions: of 10 OCD patients, 6 mg first week then 8 mg, 3 to 4 weeks
Excerpt: This study is provided to illustrate the usefulness of using reboxetine as a treatment for OCD and the invention described herein should not be considered limited by this example.

[2] = system: muscarinic cholinergic receptors; experiment: interaction with muscarinic cholinergic receptors; type: binding

SMILES	tolerability / safety (tolerability and safety)	interaction with I-adrenerigic receptors (I-adrenerigic receptors)	dopamine uptake inhibitory activity (dopamine uptake)	inhibition of the reuptake of noradrenaline (norepinephrine uptake)	monoamine oxidase (MAO) inhibitory activity (monoamine oxidase (MAO))	serotonin uptake inhibitory activity (serotonin uptake)	effect in the 8-OH-DPAT hypothermia test (8-OH-DPAT hypothermia)	patients judged minimally improved at CGI last assessment [1]	patients judged much improved at CGI last assessment [1]	patients judged very much improved at CGI last assessment [1]	patients unchanged at CGI last assessment [1]	interaction with muscarinic cholinergic receptors [2]
CC(C)NCC(O)COc1cccc2[nH]ccc12 (stereo not drawn) [Pindolol, 1-(1H-Indol-4-yloxy)-3-[(1-methylethyl)amino]-2-propanol]	fairly safe											
CCOc1ccccc1OC(c1ccccc1)C1CNCCO1 (stereo not drawn) [reboxetine]		without showing any appreciable interaction	no dopamine uptake inhibitory activity	inhibitory properties of classical tricyclic antidepressants	devoid	only marginal	ineffective	2	4	one	3	without showing any appreciable interaction
